From US10738062B2, “Chromane-substituted tetracyclic compounds and uses thereof for the treatment of viral diseases” (Merck Sharp & Dohme Corp., priority 2016, dated 2020) come the findings set out here.

What all share (design): species or system Hepatitis C virus
For one test, the system named is HCV replicon 1A. Nature of the test: Cell-based HCV replicon assay (Replicon Assay A), replicon 1A. The settings on record: replicon RNA by real time PCR, day 3. A digest of the protocol: (§1)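 Replicon cells were seeded at 2000/well with compound, 10 serial dilutions starting at 333.3 nM to 1.667 nM, in 0.5% DMSO and 5% FBS, then harvested on day 3. Replicon RNA was measured by multiplex TaqMan RT-PCR with cyclophilin as endogenous control. EC50 is the concentration raising Ct by 1 over projected baseline.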
A general note: In antiviral work, replicon cells carry a viral genome segment that copies itself.

Another test relates to HCV replicon 1B. Briefly: Cell-based HCV replicon assay (Replicon Assay B), replicon 1B. The settings on record: replicon RNA by real-time PCR, 3 days. The procedure:
In an alternate assay (“Replicon Assay B”), 1000 cells were seeded per well in a 384-well collagen coated black plate from Greiner bio-one (Cat #781946) in 5% FBS. Inhibitors of this invention were added at 24 h post-seeding, and the plates were incubated for 3 days. Cells were subsequently lysed with Qiagen lysis buffer (Cat #1062731) to extract the RNA. HCV replicon RNA level was measured by real-time PCR using the RNA-to-CT kit from Applied Biosystem (Cat #4392656) and genotype-specific primers and probes. The amplicon was located within NS5B. […] (SEQ. ID NO. 2); the probe sequence was FAM-labeled […] (SEQ. ID NO. 3).
The real-time RT-PCR reactions were run on ABI PRISM 7900HT or Viia7 Sequence Detection System using the following program: 48° C. for 30 minutes, 95° C. for 10 minutes, 40 cycles of 95° C. for 15 sec, 60° C. for 1 minutes.
EC50 data for replicons 1A, 1AY93H and 2B were obtained using Replicon Assay A and EC50 data for replicon 1B was obtained using Replicon Assay B.

A further test concerns HCV replicon 2B. Briefly: Cell-based HCV replicon assay (Replicon Assay A), replicon 2B. The settings on record: replicon RNA by real time PCR, day 3. The procedure, abridged:
as §1

The next test concerns HCV replicon 1A Y93H. Briefly: Cell-based HCV replicon assay (Replicon Assay A), replicon 1AY93H. Particulars: replicon RNA by real time PCR, day 3. The procedure, abridged: as §1
Setting [1] is: read-out: EC50 replicon 2B, Replicon Assay A.
[2] abbreviates: Hepatitis C virus, 72 h, read-out: EC50 replicon 1A Y93H, Replicon Assay A.
Where [3] appears, read: read-out: EC50 replicon 1A Y93H, Replicon Assay A.
[4] abbreviates: Hepatitis C virus, 72 h, read-out: EC50 replicon 2B, Replicon Assay A.

Where two headings read alike, the source gives them in different places.

By EC50 is commonly meant the concentration giving half of the maximal effect. For the compound `COC(=O)NC(C(=O)N1CCC[C@H]1c1ncc(-c2ccc3c(c2)cc2n3C(c3ccc4c(c3)OCCC4)Oc3cc(-c4cnc([C@@H]5CCCN5C(=O)[C@@H](NC(=O)OC)C(C)C)[nH]4)cc(F)c3-2)[nH]1)C(C)(C)F` (single isomer, unassigned) [Compound 43], the EC50 in the test with HCV replicon 1A (Hepatitis C virus, 72 h) was determined as 2.2 pM; in the test on HCV replicon 1B (Hepatitis C virus, 72 h) it was 2.3 pM; in the test with HCV replicon 2B (setting [1]) it was 81 pM; with HCV replicon 1A Y93H (setting [2]), 75 pM.

On to `COC(=O)N[C@H](C(=O)N1CCC[C@H]1c1ncc(-c2cc(F)c3c(c2)OC(c2ccc4c(c2)OCC4)n2c-3cc3cc(-c4cnc([C@@H]5C[C@H]6C[C@H]6N5C(=O)[C@@H](NC(=O)OC)C(C)C)[nH]4)ccc32)[nH]1)C(C)C` (single isomer, unassigned) [Compound 48], for which the EC50 with HCV replicon 1A (Hepatitis C virus, 72 h) amounted to 1.9 pM; in the test on HCV replicon 1B (Hepatitis C virus, 72 h), 1.5 pM; in the test with HCV replicon 2B (setting [1]), 382 pM; in the test on HCV replicon 1A Y93H (setting [3]), 33 pM.

As for `COC(=O)N[C@H](C(=O)N1CCC[C@H]1c1ncc(-c2ccc3c(c2)OC(c2ccc4c(c2)OCCC4)n2c-3cc3cc(-c4cnc([C@@H]5C[C@H]6C[C@H]6N5C(=O)[C@@H](NC(=O)OC)C(C)C)[nH]4)ccc32)[nH]1)C(C)C` (single isomer, unassigned) [Compound 50], the EC50 in the test with HCV replicon 1A is 1.4 pM; with HCV replicon 1B (Hepatitis C virus, 72 h), 1.4 pM; in the test with HCV replicon 2B (setting [1]), 36 pM; in the test with HCV replicon 1A Y93H (setting [3]) it was 60 pM.

Turning to `COC(=O)N[C@H](C(=O)N1CCC[C@H]1c1ncc(-c2ccc3c(c2)OC(c2ccc4c(c2)CCCO4)n2c-3cc3cc(-c4cnc([C@@H]5C[C@H]6C[C@H]6N5C(=O)[C@@H](NC(=O)OC)C(C)C)[nH]4)ccc32)[nH]1)C(C)C` (single isomer, unassigned) [Compound 51], the EC50 worked out at 1.9 pM with HCV replicon 1A (Hepatitis C virus, 72 h); 2.5 pM in the test on HCV replicon 1B (Hepatitis C virus, 72 h); 4770 pM with HCV replicon 2B (setting [1]); 2130 pM in the test with HCV replicon 1A Y93H (setting [3]).

As to `COC(=O)N[C@H](C(=O)N1CCC[C@H]1c1ncc(-c2ccc3c(c2)OC(c2ccc4c(c2)CCCO4)n2c-3cc3cc(-c4cnc([C@@H]5C[C@H]6C[C@H]6N5C(=O)[C@@H](NC(=O)OC)C(C)C)[nH]4)ccc32)[nH]1)C(C)C` (single isomer, unassigned) [Compound 52], the EC50 is 2.2 pM in the test with HCV replicon 1A, 3.1 pM in the test with HCV replicon 1B, 1670 pM in the test with HCV replicon 2B (setting [1]) and 454 pM in the test with HCV replicon 1A Y93H (setting [3]).

For `CCN(CC)[C@@H](C(=O)N1[C@@H]2C[C@@H]2C[C@H]1c1ncc(-c2ccc3c(c2)cc2n3C(c3ccc4c(c3)OCCC4)Oc3cc(-c4cnc([C@@H]5CCCN5C(=O)[C@@H](NC(=O)OC)C5CCOCC5)[nH]4)cc(F)c3-2)[nH]1)c1ccccc1` (single isomer, unassigned) [Compound 54], the EC50 in the test on HCV replicon 1A (Hepatitis C virus, 72 h) came to 4.9 pM; in the test on HCV replicon 1B (Hepatitis C virus, 72 h), 2.4 pM; in the test on HCV replicon 2B (setting [1]), 11 pM; with HCV replicon 1A Y93H (setting [2]), 8 pM.

With `COC(=O)NC(C(=O)N1CCC[C@H]1c1ncc(-c2ccc3c(c2)cc2n3C(c3ccc4c(c3)OC(C)CC4)Oc3cc(-c4cnc([C@@H]5CCCN5C(=O)[C@@H](NC(=O)OC)C(C)C)[nH]4)cc(F)c3-2)[nH]1)C1C[C@@H](C)O[C@@H](C)C1` (single isomer, unassigned) [Compound 59], the 50% effective concentration (EC50) in the test with HCV replicon 1A came out at 3.2 pM; in the test on HCV replicon 1B (Hepatitis C virus, 72 h), 2.7 pM; with HCV replicon 2B (setting [1]), 17 pM; in the test with HCV replicon 1A Y93H (setting [3]), 15 pM.

With `COC(=O)NC(C(=O)N1CCC[C@H]1c1ncc(-c2ccc3c(c2)cc2n3C(c3ccc4c(c3)OC(C)CC4)Oc3cc(-c4cnc([C@@H]5CCCN5C(=O)[C@@H](NC(=O)OC)C(C)C)[nH]4)cc(F)c3-2)[nH]1)C1C[C@@H](C)O[C@@H](C)C1` (single isomer, unassigned) [Compound 60], the EC50 turned out to be 3 pM in the test on HCV replicon 1A, 3.1 pM in the test with HCV replicon 1B, 25 pM in the test with HCV replicon 2B (setting [1]) and 20 pM with HCV replicon 1A Y93H (setting [3]).

As for `COC(=O)NC(C(=O)N1CCC[C@H]1c1ncc(-c2ccc3c(c2)cc2n3C(c3ccc4c(c3)OC(C)CC4)Oc3cc(-c4cnc([C@@H]5CCCN5C(=O)[C@@H](NC(=O)OC)C(C)C)[nH]4)cc(F)c3-2)[nH]1)C1CCOC(C)(C)C1` (single isomer, unassigned) [Compound 63], the EC50 in the test with HCV replicon 1A was determined as 2.6 pM; in the test on HCV replicon 1B (Hepatitis C virus, 72 h), 2 pM; in the test on HCV replicon 2B (setting [1]), 16 pM; with HCV replicon 1A Y93H (setting [3]), 32 pM.

As to `COC(=O)NC(C(=O)N1CCC[C@H]1c1ncc(-c2ccc3c(c2)cc2n3C(c3ccc4c(c3)OC(C)CC4)Oc3cc(-c4cnc([C@@H]5CCCN5C(=O)[C@@H](NC(=O)OC)C(C)C)[nH]4)cc(F)c3-2)[nH]1)C1CCOC(C)(C)C1` (single isomer, unassigned) [Compound 64], the EC50 was determined as 2.7 pM with HCV replicon 1A, 4 pM in the test with HCV replicon 1B, 26 pM in the test on HCV replicon 2B (setting [1]) and 60 pM in the test with HCV replicon 1A Y93H (setting [3]).

In the case of `COC(=O)NC(C(=O)N1[C@@H]2C[C@@H]2C[C@H]1c1ncc(-c2ccc3c(c2)cc2n3C(c3ccc4c(c3)CCCO4)Oc3cc(-c4cnc([C@@H]5CCCN5C(=O)[C@@H](NC(=O)OC)C(C)C)[nH]4)cc(F)c3-2)[nH]1)C1C[C@@H](C)O[C@@H](C)C1` (single isomer, unassigned) [Compound 65], the EC50 came to 2.9 pM with HCV replicon 1A (Hepatitis C virus, 72 h); 1.8 pM in the test on HCV replicon 1B (Hepatitis C virus, 72 h); 935 pM in the test on HCV replicon 2B (setting [1]); 43 pM in the test on HCV replicon 1A Y93H (setting [3]).

For the compound `COC(=O)NC(C(=O)N1[C@@H]2C[C@@H]2C[C@H]1c1ncc(-c2ccc3c(c2)cc2n3C(c3ccc4c(c3)OCCC4)Oc3cc(-c4cnc([C@@H]5CCCN5C(=O)[C@@H](NC(=O)OC)C(C)C)[nH]4)cc(F)c3-2)[nH]1)C1C[C@@H](C)O[C@@H](C)C1` (single isomer, unassigned) [Compound 68], the EC50 was 1.8 pM with HCV replicon 1A; 2.3 pM with HCV replicon 1B (Hepatitis C virus, 72 h); 16 pM in the test with HCV replicon 2B (setting [1]); 5 pM in the test on HCV replicon 1A Y93H (setting [3]).

On to `COC(=O)NC(C(=O)N1[C@@H]2C[C@@H]2C[C@H]1c1ncc(-c2ccc3c(c2)cc2n3C(c3ccc4c(c3)OCCC4)Oc3cc(-c4cnc([C@@H]5CCCN5C(=O)[C@@H](NC(=O)OC)C(C)C)[nH]4)cc(F)c3-2)[nH]1)C1CCOC(C)(C)C1` (single isomer, unassigned) [Compound 69], for which the EC50 in the test on HCV replicon 1A (Hepatitis C virus, 72 h) worked out at 3.2 pM; with HCV replicon 1B (Hepatitis C virus, 72 h) it was 3.5 pM; in the test with HCV replicon 2B (setting [4]), 8 pM; in the test on HCV replicon 1A Y93H (setting [2]) it was 5 pM.

With `COC(=O)NC(C(=O)N1[C@@H]2C[C@@H]2C[C@H]1c1ncc(-c2ccc3c(c2)cc2n3C(c3ccc4c(c3)OCCC4)Oc3cc(-c4cnc([C@@H]5CCCN5C(=O)[C@@H](NC(=O)OC)C(C)C)[nH]4)cc(F)c3-2)[nH]1)C1CCOC(C)(C)C1` (single isomer, unassigned) [Compound 70], the EC50 was found to be 2.8 pM with HCV replicon 1A, 2.7 pM in the test with HCV replicon 1B, 12 pM in the test on HCV replicon 2B (setting [1]) and 6 pM in the test with HCV replicon 1A Y93H (setting [3]).

Turning to `COC(=O)NC(C(=O)N1CCC[C@H]1c1ncc(-c2ccc3c(c2)cc2n3C(c3ccc4c(c3)OCCC4)Oc3cc(-c4cnc([C@@H]5CCCN5C(=O)[C@@H](NC(=O)OC)C(C)C)[nH]4)cc(F)c3-2)[nH]1)C1C[C@@H](C)O[C@@H](C)C1` (single isomer, unassigned) [Compound 76], the EC50 in the test on HCV replicon 1A is 2.5 pM; in the test with HCV replicon 1B (Hepatitis C virus, 72 h), 3.2 pM; with HCV replicon 2B (setting [1]), 4 pM; with HCV replicon 1A Y93H (setting [3]) it was 12 pM.

As to `COC(=O)NC(C(=O)N1CCC[C@H]1c1ncc(-c2ccc3c(c2)cc2n3C(c3ccc4c(c3)OCCC4)Oc3cc(-c4cnc([C@@H]5CCCN5C(=O)[C@@H](NC(=O)OC)C(C)C)[nH]4)cc(F)c3-2)[nH]1)C1C[C@@H](C)O[C@H](C)C1` (single isomer, unassigned) [Compound 78], the EC50 in the test with HCV replicon 1A was determined as 2.2 pM; in the test with HCV replicon 1B (Hepatitis C virus, 72 h) it was 2.6 pM; in the test on HCV replicon 2B (setting [1]), 4 pM; in the test with HCV replicon 1A Y93H (setting [3]), 9 pM.

For `COC(=O)NC(C(=O)N1CCC[C@H]1c1ncc(-c2ccc3c(c2)cc2n3C(c3ccc4c(c3)OCCC4)Oc3cc(-c4cnc([C@@H]5CCCN5C(=O)[C@@H](NC(=O)OC)C(C)C)[nH]4)cc(F)c3-2)[nH]1)C1CCOC(C)(C)C1` (single isomer, unassigned) [Compound 79], the EC50 with HCV replicon 1A (Hepatitis C virus, 72 h) stood at 1.7 pM; with HCV replicon 1B (Hepatitis C virus, 72 h) it was 2.7 pM; in the test with HCV replicon 2B (setting [4]), 7 pM; with HCV replicon 1A Y93H (setting [3]) it was 6 pM.

For the compound `COC(=O)NC(C(=O)N1CCC[C@H]1c1ncc(-c2ccc3c(c2)cc2n3C(c3ccc4c(c3)OCCC4)Oc3cc(-c4cnc([C@@H]5CCCN5C(=O)[C@@H](NC(=O)OC)C(C)C)[nH]4)cc(F)c3-2)[nH]1)C1CCOC(C)(C)C1` (single isomer, unassigned) [Compound 80], the EC50 was 2.6 pM in the test with HCV replicon 1A, 3.2 pM in the test on HCV replicon 1B, 6 pM with HCV replicon 2B (setting [1]) and 24 pM in the test with HCV replicon 1A Y93H (setting [3]).
